Experimental data from patent US20080312080A1 (priority 2006, published 2008).

Tested on: Aspergillus parasiticus NRRL 2999
Type: cell-based

Row | Substance | aflatoxin production inhibition activity (in words)
1 | (S)-3-aminooctanoyl-(S)-3-aminooctanoyl-L-alanine [Example 6] | extremely excellent aflatoxin production inhibition activity
2 | (S)-3-aminooctanoyl-(S)-3-aminooctanoyl-L-proline [Example 8] | extremely excellent aflatoxin production inhibition activity
3 | (S)-3-aminooctanoyl-(S)-3-aminooctanoyl-glycine [Example 4] | extremely excellent aflatoxin production inhibition activity
